Results reported in PMC12529880, “Structural mechanisms for cold‐adapted activity of phosphoenolpyruvate carboxykinase” (Protein Science : A Publication of the Protein Society, 2025).
Each block holds one compound with its values, some of them ahead of it.

What was measured:
Assay type in all cases: binding
PnPEPCK [1] = target: T1, PnPEPCK (Polaromonas naphthalenivorans, UniProt A1VIE9); test: X-ray crystal structure
T1 construct: gene pckG; full length, 622 residues, N-terminal His6-SUMO tag cleaved off with no additional amino acids; codon-optimised gene in pESUMO-Star; E. coli BL21(DE3); EC 4.1.1.32
T1 sequence (A1VIE9 entry or part of it): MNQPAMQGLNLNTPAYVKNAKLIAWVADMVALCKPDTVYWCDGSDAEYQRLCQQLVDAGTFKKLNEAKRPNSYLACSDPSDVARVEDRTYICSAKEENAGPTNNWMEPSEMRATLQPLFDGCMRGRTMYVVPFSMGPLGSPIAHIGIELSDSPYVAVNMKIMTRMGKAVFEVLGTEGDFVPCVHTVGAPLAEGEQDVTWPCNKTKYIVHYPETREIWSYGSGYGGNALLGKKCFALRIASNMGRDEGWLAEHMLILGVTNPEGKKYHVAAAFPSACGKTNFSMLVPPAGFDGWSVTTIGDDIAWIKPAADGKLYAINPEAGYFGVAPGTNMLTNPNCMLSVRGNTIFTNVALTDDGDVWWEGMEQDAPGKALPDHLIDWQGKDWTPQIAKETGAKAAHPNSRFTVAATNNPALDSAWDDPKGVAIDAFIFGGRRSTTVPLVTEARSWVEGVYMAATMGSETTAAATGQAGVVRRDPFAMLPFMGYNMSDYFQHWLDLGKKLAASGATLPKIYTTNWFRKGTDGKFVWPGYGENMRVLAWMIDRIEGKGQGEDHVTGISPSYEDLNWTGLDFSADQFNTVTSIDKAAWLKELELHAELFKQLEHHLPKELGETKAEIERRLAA

rcPEPCK = target: T2, rcPEPCK (Rattus norvegicus, UniProt P07379); test: differential scanning fluorimetry (SYPRO Orange); details: reference is the Mn-only enzyme, 21.4 μM enzyme, 1 mM MnCl2, 25 mM HEPES pH 7.4
T2 construct: gene Pck1; full length, 622 residues, SUMO tag removed by SUMO protease; E. coli BL21(DE3)
T2 sequence (P07379 1-622): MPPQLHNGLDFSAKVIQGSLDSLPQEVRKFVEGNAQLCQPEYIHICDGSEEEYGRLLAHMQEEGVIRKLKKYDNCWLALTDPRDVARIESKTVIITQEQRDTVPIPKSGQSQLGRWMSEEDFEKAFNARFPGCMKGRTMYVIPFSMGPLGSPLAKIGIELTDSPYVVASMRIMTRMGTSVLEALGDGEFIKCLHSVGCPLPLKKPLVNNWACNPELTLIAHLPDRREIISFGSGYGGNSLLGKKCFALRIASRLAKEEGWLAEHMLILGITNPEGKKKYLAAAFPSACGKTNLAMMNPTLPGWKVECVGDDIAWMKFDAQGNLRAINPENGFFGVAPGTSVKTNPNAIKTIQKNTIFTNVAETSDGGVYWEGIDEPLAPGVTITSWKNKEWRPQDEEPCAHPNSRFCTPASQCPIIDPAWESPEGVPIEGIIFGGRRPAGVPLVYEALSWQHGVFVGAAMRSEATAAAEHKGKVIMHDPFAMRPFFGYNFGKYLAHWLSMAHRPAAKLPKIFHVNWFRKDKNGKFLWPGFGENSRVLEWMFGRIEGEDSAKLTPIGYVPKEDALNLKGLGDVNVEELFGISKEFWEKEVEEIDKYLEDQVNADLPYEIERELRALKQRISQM
Description: differential scanning fluorimetry (SYPRO Orange) on rcPEPCK

PnPEPCK [2] = target: T1, PnPEPCK; test: differential scanning fluorimetry (SYPRO Orange); details: reference is the Mn-only enzyme, 21.4 μM enzyme, 1 mM MnCl2, 25 mM HEPES pH 7.4
Description: differential scanning fluorimetry (SYPRO Orange) on PnPEPCK

[3] = absolute TM of Mn-GTP complex, 214 μM GTP
[4] = absolute TM of Mn-oxalate complex, 214 μM oxalate

rcPEPCK / T M (°C) (rcPEPCK; [3]): 61.4 °C
PnPEPCK / T M (°C) (PnPEPCK [2]; [3]): 59.5 °C
Structure (SMILES): Nc1nc2c(ncn2[C@@H]2O[C@H](COP(=O)(O)OP(=O)(O)OP(=O)(O)O)[C@@H](O)[C@H]2O)c(=O)[nH]1 [GTP]
X-ray crystal structure (PnPEPCK [1]; ternary complexes with βSP or oxalate, closed): All three ternary complexes (βSP‐GTP, oxalate‐GTP, and PGA‐GDP)

X-ray crystal structure (PnPEPCK [1]; binary Mn2+ complex, open, P2_12_12_1 and C222_1 crystals): both with PEP bound at the active site
Structure (SMILES): C=C(OP(=O)(O)O)C(=O)O [PEP]

Structure (SMILES): O=C(O)COP(=O)(O)O [PGA]
X-ray crystal structure (PnPEPCK [1]; PEP analogue, ternary complex with GDP, closed): All three ternary complexes (βSP‐GTP, oxalate‐GTP, and PGA‐GDP)

Structure (SMILES): Nc1nc2c(ncn2[C@@H]2O[C@H](COP(=O)(O)OP(=O)(O)O)[C@@H](O)[C@H]2O)c(=O)[nH]1 [GDP]
X-ray crystal structure (PnPEPCK [1]; ternary complex with PGA, closed): All three ternary complexes (βSP‐GTP, oxalate‐GTP, and PGA‐GDP)

rcPEPCK / T M (°C) (rcPEPCK; [4]): 54.4 °C
PnPEPCK / T M (°C) (PnPEPCK [2]; [4]): 46.3 °C
Structure (SMILES): O=C(O)C(=O)O [oxalate]
X-ray crystal structure (PnPEPCK [1]; enol-pyruvate mimic, ternary complex with GTP, closed): All three ternary complexes (βSP‐GTP, oxalate‐GTP, and PGA‐GDP)

Structure (SMILES): O=C(O)C(=O)CS(=O)(=O)O [βSP]
X-ray crystal structure (PnPEPCK [1]; OAA analogue, binary Mn2+ complex and ternary complex with GTP, closed): All three ternary complexes (βSP‐GTP, oxalate‐GTP, and PGA‐GDP) in addition to βSP alone
